Laboratory results: PubChem BioAssay (NCI)
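Tested at 5 concentrations; 48 h exposure; 96-well plates; endpoints linearly interpolated, else capped at highest concentration. TGI marks complete inhibition of growth.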

Experiments:
Assay in all cases: DTP human tumour cell line panel, 48 h
NCI-H522 lung = system: NCI-H522 lung
U251 CNS = system: U251 CNS
A549 NSCLC = system: A549 NSCLC
NCI-H23 lung = system: NCI-H23 lung
HT29 colon = system: HT29 colon
LXFL 529 NSCLC = system: LXFL 529 NSCLC
SF-539 CNS = system: SF-539 CNS
SK-MEL-28 melanoma = system: SK-MEL-28 melanoma
XF 498 CNS = system: XF 498 CNS
K-562 leukemia = system: K-562 leukemia
MOLT-4 leukemia = system: MOLT-4 leukemia
SF-268 CNS = system: SF-268 CNS
COLO 205 colon = system: COLO 205 colon
DLD-1 colon = system: DLD-1 colon
786-0 renal = system: 786-0 renal
SK-MEL-2 melanoma = system: SK-MEL-2 melanoma
M14 melanoma = system: M14 melanoma
CCRF-CEM leukemia = system: CCRF-CEM leukemia
HCC-2998 colon = system: HCC-2998 colon
SK-OV-3 ovarian = system: SK-OV-3 ovarian
HL-60(TB) leukemia = system: HL-60(TB) leukemia
SNB-78 CNS = system: SNB-78 CNS
UO-31 renal = system: UO-31 renal
KM12 colon = system: KM12 colon
SN12C renal = system: SN12C renal
SF-295 CNS = system: SF-295 CNS
SW-620 colon = system: SW-620 colon
NCI-H226 lung = system: NCI-H226 lung
HCT-15 colon = system: HCT-15 colon
NCI-H460 lung = system: NCI-H460 lung
EKVX NSCLC = system: EKVX NSCLC
DMS 273 small cell lung = system: DMS 273 small cell lung
SR leukemia = system: SR leukemia
OVCAR-4 ovarian = system: OVCAR-4 ovarian
HOP-62 NSCLC = system: HOP-62 NSCLC
SNB-19 CNS = system: SNB-19 CNS
UACC-62 melanoma = system: UACC-62 melanoma
IGROV1 ovarian = system: IGROV1 ovarian
SNB-75 CNS = system: SNB-75 CNS
M19-MEL melanoma = system: M19-MEL melanoma
TK-10 renal = system: TK-10 renal
SK-MEL-5 melanoma = system: SK-MEL-5 melanoma
ACHN renal = system: ACHN renal
CAKI-1 renal = system: CAKI-1 renal
HCT-116 colon = system: HCT-116 colon
LOX IMVI melanoma = system: LOX IMVI melanoma
OVCAR-5 ovarian = system: OVCAR-5 ovarian
KM20L2 colon = system: KM20L2 colon
RPMI-8226 leukemia = system: RPMI-8226 leukemia
HOP-92 NSCLC = system: HOP-92 NSCLC
OVCAR-8 ovarian = system: OVCAR-8 ovarian
DMS 114 small cell lung = system: DMS 114 small cell lung
UACC-257 melanoma = system: UACC-257 melanoma
RXF 393 renal = system: RXF 393 renal
HOP-18 NSCLC = system: HOP-18 NSCLC
MALME-3M melanoma = system: MALME-3M melanoma
A498 renal = system: A498 renal

CC1=Nn2c(nnc2-c2ccccc2Cl)NC(C)(C)C1
TGI (NCI-H522 lung): > 100 µM
TGI (U251 CNS): > 100 µM
TGI (A549 NSCLC): > 100 µM
TGI (NCI-H23 lung): > 100 µM
TGI (HT29 colon): > 100 µM
TGI (LXFL 529 NSCLC): > 100 µM
TGI (SF-539 CNS): > 100 µM
TGI (SK-MEL-28 melanoma): > 100 µM
TGI (XF 498 CNS): > 100 µM
TGI (K-562 leukemia): > 100 µM
TGI (MOLT-4 leukemia): > 100 µM
TGI (SF-268 CNS): > 100 µM
TGI (COLO 205 colon): > 100 µM
TGI (DLD-1 colon): > 100 µM
TGI (786-0 renal): > 100 µM
TGI (SK-MEL-2 melanoma): > 100 µM
TGI (M14 melanoma): > 100 µM
TGI (CCRF-CEM leukemia): > 100 µM
TGI (HCC-2998 colon): > 100 µM
TGI (SK-OV-3 ovarian): > 100 µM
TGI (HL-60(TB) leukemia): > 100 µM
TGI (SNB-78 CNS): > 100 µM
TGI (UO-31 renal): > 100 µM
TGI (KM12 colon): > 100 µM
TGI (SN12C renal): > 100 µM
TGI (SF-295 CNS): > 100 µM
TGI (SW-620 colon): 35.8 µM
TGI (NCI-H226 lung): > 100 µM
TGI (HCT-15 colon): > 100 µM
TGI (NCI-H460 lung): > 100 µM
TGI (EKVX NSCLC): > 100 µM
TGI (DMS 273 small cell lung): > 100 µM
TGI (SR leukemia): 74.4 µM
TGI (OVCAR-4 ovarian): > 100 µM
TGI (HOP-62 NSCLC): > 100 µM
TGI (SNB-19 CNS): > 100 µM
TGI (UACC-62 melanoma): > 100 µM
TGI (IGROV1 ovarian): > 100 µM
TGI (SNB-75 CNS): > 100 µM
TGI (M19-MEL melanoma): > 100 µM
TGI (TK-10 renal): > 100 µM
TGI (SK-MEL-5 melanoma): > 100 µM
TGI (ACHN renal): > 100 µM
TGI (CAKI-1 renal): > 100 µM
TGI (HCT-116 colon): > 100 µM
TGI (LOX IMVI melanoma): > 100 µM
TGI (OVCAR-5 ovarian): > 100 µM
TGI (KM20L2 colon): > 100 µM
TGI (RPMI-8226 leukemia): 54.3 µM
TGI (HOP-92 NSCLC): > 100 µM
TGI (OVCAR-8 ovarian): > 100 µM

CN(C)CC/C(=N\Nc1c(F)c(F)c(F)c(F)c1F)c1ccccc1
TGI (NCI-H522 lung): > 100 µM
TGI (U251 CNS): > 100 µM
TGI (A549 NSCLC): > 100 µM
TGI (NCI-H23 lung): > 100 µM
TGI (HT29 colon): > 100 µM
TGI (LXFL 529 NSCLC): > 100 µM
TGI (SF-539 CNS): > 100 µM
TGI (SK-MEL-28 melanoma): > 100 µM
TGI (K-562 leukemia): > 100 µM
TGI (MOLT-4 leukemia): > 100 µM
TGI (SF-268 CNS): > 100 µM
TGI (COLO 205 colon): > 100 µM
TGI (DLD-1 colon): > 100 µM
TGI (786-0 renal): > 100 µM
TGI (SK-MEL-2 melanoma): > 100 µM
TGI (DMS 114 small cell lung): 79.2 µM
TGI (CCRF-CEM leukemia): 95.5 µM
TGI (SK-OV-3 ovarian): > 100 µM
TGI (HL-60(TB) leukemia): 28.2 µM
TGI (SNB-78 CNS): > 100 µM
TGI (UO-31 renal): 63.4 µM
TGI (KM12 colon): > 100 µM
TGI (SN12C renal): > 100 µM
TGI (SF-295 CNS): > 100 µM
TGI (SW-620 colon): > 100 µM
TGI (HCT-15 colon): > 100 µM
TGI (UACC-257 melanoma): 80.6 µM
TGI (RXF 393 renal): > 100 µM
TGI (NCI-H460 lung): > 100 µM
TGI (EKVX NSCLC): > 100 µM
TGI (DMS 273 small cell lung): > 100 µM
TGI (SR leukemia): 47.9 µM
TGI (OVCAR-4 ovarian): > 100 µM
TGI (SNB-19 CNS): > 100 µM
TGI (UACC-62 melanoma): > 100 µM
TGI (IGROV1 ovarian): > 100 µM
TGI (SNB-75 CNS): 13.1 µM
TGI (M19-MEL melanoma): > 100 µM
TGI (TK-10 renal): > 100 µM
TGI (SK-MEL-5 melanoma): 28 µM
TGI (HOP-18 NSCLC): > 100 µM
TGI (ACHN renal): > 100 µM
TGI (HCT-116 colon): > 100 µM
TGI (LOX IMVI melanoma): > 100 µM
TGI (MALME-3M melanoma): > 100 µM
TGI (A498 renal): > 100 µM
TGI (OVCAR-5 ovarian): > 100 µM
TGI (KM20L2 colon): > 100 µM
TGI (RPMI-8226 leukemia): 70.5 µM
TGI (OVCAR-8 ovarian): > 100 µM
